Measured values taken from patent US6566373B2, “Protease inhibitors” (SmithKline Beecham Corporation, priority 1997, dated 2003).
pKi: −log10 of the molar value. Structures can show the parent of a compound that is named as a salt.

What was measured:
cathepsin K = target: T1, cathepsin K (Homo sapiens, UniProt P43235); assay: Cathepsin K inhibition (progress curve method, fluorogenic substrate Cbz-Phe-Arg-AMC); type: biochemical; conditions: human recombinant enzyme, 100 mM Na acetate pH 5.5
T1 sequence (P43235 115-329): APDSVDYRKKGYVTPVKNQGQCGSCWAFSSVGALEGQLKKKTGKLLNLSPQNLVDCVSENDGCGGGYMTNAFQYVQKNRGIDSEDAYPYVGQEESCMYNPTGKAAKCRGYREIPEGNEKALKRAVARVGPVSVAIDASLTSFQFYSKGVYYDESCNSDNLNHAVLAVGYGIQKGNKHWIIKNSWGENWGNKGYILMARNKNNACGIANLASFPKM
Description: Determination of Cathepsin K Proteolytic Catalytic Activity
All assays for cathepsin K were carried out with human recombinant enzyme. Standard assay conditions for the determination of kinetic constants used a fluorogenic peptide substrate, typically Cbz-Phe-Arg-AMC, and were determined in 100 mM Na acetate at pH 5.5 containing 20 mM cysteine and 5 mM EDTA. Stock substrate solutions were prepared at concentrations of 10 or 20 mM in DMSO with 20 μM final substrate concentration in the assays. All assays contained 10% DMSO. […] All assays were conducted at ambient temperature. Product fluorescence (excitation at 360 nm; emission at 460 nm) was monitored with a Perceptive Biosystems Cytofluor II fluorescent plate reader. […]
Potential inhibitors were evaluated using the progress curve method. […] For those compounds whose progress curves were linear, apparent inhibition constants (Ki,app) were calculated according to equation 1 (Brandt et al., Biochemitsry, 1989, 28, 140): […]
[AMC]=vSSt+(v0−vSS)[1−exp (−kobst)]/kobs (2) where [AMC] is the concentration of product formed over time t, v0 is the initial reaction velocity, and vSS is the final steady state rate. Values for kobs were then analyzed as a linear function of inhibitor concentration to generate an apparent second order rate constant (kobs/inhibitor concentration or kobs/[I]) describing the time-dependent inhibition. […]

pKi (cathepsin K)	melting point	SMILES
< 5.00		CC(C)C[C@H](NS(=O)(=O)c1cccc2cccnc12)C(=O)NC1COCC1=O (mixture of isomers) [Example 7, 4-(R,S)-Amino-N-[(8-quinolinesulfonyl)-S-leucine]-tetrahydrofuran-3-one]
	98 °C	CC(C)C[C@H](NS(=O)(=O)c1cccc2cccnc12)C(=O)NC1COCC1=O (mixture of isomers) (as salt: HCl) [Example 7, 4-(R,S)-Amino-N-[(8-quinolinesulfonyl)-S-leucine]-tetrahydrofuran-3-one]
